Usually IC50 stands for the concentration that gives 50% inhibition. The term Kd denotes the free concentration of one partner at which half of the binding sites on the other are occupied at equilibrium, for simple one-to-one binding.

These results are taken from patent publication US20220282217A1, “COMPOSITIONS AND METHODS FOR PREPARING T CELL COMPOSITIONS AND USES THEREOF” (priority 2019, published 2022).

Read-outs that look alike come from different tables or passages of the source. Where a SMILES comes first, the peptide text is derived from it.

The experiment has as its target HLA-A02.01 (Homo sapiens, UniProt P04439, D140Y/D185E/D98H/E176V/E277Q/G131W/G231S/I119V/I121R/I166T/I218V/L300P/L318F/N151K/N90K/P208A/P217A/Q86G/Q94H/R138H/R169H/T345S). The experiment in a line: Class I MHC peptide binding affinity (displacement of radiolabeled reference peptide). The note with it: for IC50: allele A02.01, (nM)). The method, boiled down:
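Peptides compete against a prebound radiolabeled reference on MHCI over 2 days at several concentrations.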

[1] abbreviates: read-out: Observed Affinity (IC50.

With `CC(C)C[C@H](NC(=O)[C@H](Cc1c[nH]cn1)NC(=O)[C@H](Cc1c[nH]c2ccccc12)NC(=O)[C@H](CC(C)C)NC(=O)[C@@H](N)CCCNC(=N)N)C(=O)N[C@@H](CC(C)C)C(=O)N[C@@H](CC(C)C)C(=O)N[C@@H](CCC(N)=O)C(=O)N[C@H](C(=O)N[C@H](C(=O)O)[C@@H](C)O)C(C)C` (H-RLWHLLLQVT-OH; N-terminus and C-terminus assumed), the half-maximal inhibitory concentration (IC50) under setting [1] was 50.9 nM.

For the molecule `CC(C)C[C@H](NC(=O)[C@H](CCCNC(=N)N)NC(=O)[C@@H](NC(=O)[C@H](CC(C)C)NC(=O)[C@@H](N)CO)C(C)C)C(=O)N[C@@H](CO)C(=O)N[C@@H](CO)C(=O)N[C@@H](CS)C(=O)N[C@H](C(=O)O)C(C)C` (H-SLVRLSSCV-OH; N-terminus and C-terminus assumed), under setting [1], the IC50 was 29.9 nM.

Take `CC[C@H](C)[C@H](NC(=O)[C@H](Cc1ccc(O)cc1)NC(=O)[C@H](CC(C)C)NC(=O)[C@@H](N)CO)C(=O)N[C@H](C(=O)NCC(=O)N[C@@H](Cc1ccccc1)C(=O)N[C@@H](Cc1ccc(O)cc1)C(=O)NCC(=O)O)C(C)C` (H-SLYIVGFYG-OH; N-terminus and C-terminus assumed): under setting [1], the IC50 was 1060 nM.

In turn, `CC[C@H](C)[C@H](NC(=O)[C@H](CC(C)C)NC(=O)[C@H](CCC(N)=O)NC(=O)[C@@H](NC(=O)[C@@H](NC(=O)[C@@H](N)CO)[C@@H](C)O)C(C)C)C(=O)N[C@@H](CCSC)C(=O)N[C@@H](CCC(N)=O)C(=O)N[C@@H](CC(C)C)C(=O)O` (H-STVQLIMQL-OH; N-terminus and C-terminus assumed) came in with a dissociation constant (Kd) of 7260 nM. The molecule further displayed an IC50 (Observed Affinity (IC50) of 8540 nM.

As for `CC[C@H](C)[C@H](NC(=O)[C@@H](NC(=O)[C@@H](NC(=O)[C@H](CC(C)C)NC(=O)[C@@H](NC(=O)[C@@H]1CCCN1C(=O)CNC(=O)CNC(=O)[C@@H](NC(=O)[C@@H](N)[C@@H](C)O)[C@@H](C)CC)[C@@H](C)O)C(C)C)[C@@H](C)CC)C(=O)O` (H-TIGGPTLVII-OH; N-terminus and C-terminus assumed), under setting [1], the half-maximal inhibitory concentration (IC50) came to 10700 nM.

As for `CC(C)C[C@H](NC(=O)[C@H](CS)NC(=O)[C@H](Cc1c[nH]c2ccccc12)NC(=O)[C@H](CC(C)C)NC(=O)[C@H](CO)NC(=O)[C@H](CO)NC(=O)[C@H](CCCNC(=N)N)NC(=O)[C@H](CCC(N)=O)NC(=O)[C@H](CC(C)C)NC(=O)[C@@H](N)[C@@H](C)O)C(=O)O` (H-TLQRSSLWCL-OH; N-terminus and C-terminus assumed), under setting [1], the IC50 is 118 nM.

In the case of `CC[C@H](C)[C@H](NC(=O)[C@H](CCC(N)=O)NC(=O)[C@@H](N)[C@@H](C)O)C(=O)N[C@@H](CO)C(=O)N[C@@H](CO)C(=O)N[C@@H](C)C(=O)N[C@H](C(=O)N[C@@H](CCC(=O)O)C(=O)N[C@@H](Cc1ccc(O)cc1)C(=O)N[C@@H](CC(C)C)C(=O)O)[C@@H](C)O` (H-TQISSATEYL-OH; N-terminus and C-terminus assumed), the IC50 (Observed Affinity (IC50) was 2640 nM.

For `CC(C)C[C@H](NC(=O)[C@@H](N)C(C)C)C(=O)N[C@H](C(=O)N[C@H](C(=O)N[C@H](C(=O)N[C@@H](CO)C(=O)N[C@H](C(=O)N[C@@H](CC(=O)O)C(=O)N[C@H](C(=O)O)C(C)C)[C@@H](C)O)[C@@H](C)O)C(C)C)[C@@H](C)O` (H-VLTVTSTDV-OH), the IC50 under setting [1] turned out to be 295 nM.

In the case of `CC[C@H](C)[C@H](NC(=O)[C@H](CCCCN)NC(=O)[C@H](Cc1ccc(O)cc1)NC(=O)[C@@H](NC(=O)[C@@H](NC(=O)[C@H](CC(=O)O)NC(=O)[C@H](CO)NC(=O)[C@H](CCSC)NC(=O)[C@@H](N)C(C)C)[C@@H](C)O)[C@@H](C)O)C(=O)O` (H-VMSDTTYKI-OH; N-terminus and C-terminus assumed), the IC50 (Observed Affinity (IC50) came out at 19.6 nM.

On to `CC(C)C[C@H](NC(=O)[C@H](CO)NC(=O)CNC(=O)[C@H](CC(C)C)NC(=O)[C@H](CO)NC(=O)[C@H](CCCNC(=N)N)NC(=O)[C@H](Cc1c[nH]c2ccccc12)NC(=O)[C@H](CCC(N)=O)NC(=O)[C@@H](N)C(C)C)C(=O)O` (H-VQWRSLGSL-OH; N-terminus and C-terminus assumed), for which the half-inhibitory concentration (IC50) under setting [1] was found to be 4730 nM.
